Experiments:
[1] = tested on: Human Liver cells (Hep-G2); test: Cellular metabolic activity, autobioluminescent liver cells; type: cell-based; conditions: for concentration-dependent effect on cellular metabolism over time: 24 h
Description: Autobioluminescent Human Epithelial Kidney cells (HEK-293, 490 Biotech) and Human Liver cells (Hep-G2, 490 Biotech) and Human primary astrocytes (490 Biotech) were seeded at 10,000 kidney cells/well, or 50,000 liver cells/well, in 96-well tissue culture treated plates (Falcon) in growth media. The growth media consists of the following: DMEM (Hyclone), 10% heat-inactivated FBS (Gibco), 1% Sodium Pyruvate (HyClone), 1% antibiotic/antimyotic (Hyclone) and 100 μg G418/ml (Gibco). Cells were grown for 2 days prior to treatment with dimenadione derivative compounds. […] The treated cells were incubated at 37° C. and 5% CO2 for x hours. At each concentration, bioluminescence was measured with either a BMG Labtech clarioSTAR plate reader or an IVIS CCD camera system. Any changes in cell bioluminescence were recorded as photons/per well. The replicates were averaged, and all conditions were normalized to background light detection (medium-only control wells). The vehicle-only controls were compared to the untreated controls to make sure there was not change in metabolic activity due to the solvent. All other treatments were then compared to the vehicle control. The relative change in light output was measured between each treatment and the vehicle control at each timepoint. The amount of light being made is proportional to metabolic activity (as measured by FMNH2 availability, which provides the same information as a traditional ATP content assay (i.e., CellTiter Glo).
5 fM to 5 μM (10 μL/well) of individual compounds solubilized in DMSO were incubated with cells in 96-well plates. The reference compound was DMSO-only vehicle control, at a final concentration of 0.1% DMSO. Importantly maximally effective concentrations of the compound, in the mid-picomolar to mid-nanomolar range, increased metabolic activity by as much as 2.5-fold. This observation aligns with the core hypothesized mechanism of the compound which has been designed to integrate into the mitochondrial ETC and improve energy production in the form of ATP in mitochondria. Increased energy production is reflected in overall cellular metabolism of the cells.

[2] = tested on: Autobioluminescent Human Epithelial Kidney cells (HEK-293); test: Cellular metabolic activity, autobioluminescent kidney cells; type: cell-based; conditions: FIG. 7A; Hematin:RLS3 1:1,000; 0.5 pM-5 nM RLS3; 14-hour period post-exposure; kidney cell model
Description: (§1) Autobioluminescent Human Epithelial Kidney cells (HEK-293, 490 Biotech) and Human Liver cells (Hep-G2, 490 Biotech) and Human primary astrocytes (490 Biotech) were seeded at 10,000 kidney cells/well, or 50,000 liver cells/well, in 96-well tissue culture treated plates (Falcon) in growth media. The growth media consists of the following: DMEM (Hyclone), 10% heat-inactivated FBS (Gibco), 1% Sodium Pyruvate (HyClone), 1% antibiotic/antimyotic (Hyclone) and 100 μg G418/ml (Gibco). Cells were grown for 2 days prior to treatment with dimenadione derivative compounds. The media was aspirated and cells were washed with 1×PBS (Fisher, SH30256.01) and treated with serial dilutions ranging from 5 fM to 5 μM (1 mL/well) dimenadione derivative compounds. The treated cells were incubated at 37° C. and 5% CO2 for x hours. At each concentration, bioluminescence was measured with either a BMG Labtech clarioSTAR plate reader or an IVIS CCD camera system. Any changes in cell bioluminescence were recorded as photons/per well. […] The relative change in light output was measured between each treatment and the vehicle control at each timepoint. The amount of light being made is proportional to metabolic activity (as measured by FMNH2 availability, which provides the same information as a traditional ATP content assay (i.e., CellTiter Glo). […]

primary astrocytes = test: Cellular metabolic activity, autobioluminescent neuronal (astrocyte) cells; type: cell-based, murine; conditions: 24 hour period
Description: as §1

[3] = FIG. 8A, complexed with Hematin 1:1,000, 0.5 nM-5 μM, 24-hour period post-exposure, liver cells
[4] = complexed with hematin (FIG. 8A), liver cells
[5] = without hematin complexation (FIG. 8B), 1 pM-10 μM, liver cells

Row | Structure (SMILES) | metabolic activity (bioluminescence) over time ([1]; FIG. 7B, Hematin:RLS3 1:1,000, 500 pM-5 μM RLS3, 14 h period post-exposure, liver cell model as printed) | metabolic activity (bioluminescence) over time [1, 3] | concentration-dependent effect on cellular metabolism over time [1, 4] | concentration-dependent effect on cellular metabolism over time [1, 5] | metabolic activity (bioluminescence) over time [2] | effect on cellular metabolism (primary astrocytes; FIG. 9A, 100 pM and 1 nM RLS5 with Hematoporphyrin complexation (1:1000)) | effect on cellular metabolism (primary astrocytes; FIG. 9B, 100 pM and 1 nM RLS5 without Hematoporphyrin complexation)
1 | COc1cc(C)c(OC)c2ccccc12 [RLS3, 1,4-Dimethoxy-2-Methylnaphthalene] | increase in metabolic activity over time | increase in metabolic activity over time | seemed to show a concentration-dependent effect | did not | increase in metabolic activity over time |  | 
2 | COc1c(C)c(C=O)c(OC)c2ccccc12 [RLS4, 1,4-Dimethoxy-3-Methyl-2-Naphthaldehyde] |  | increase in metabolic activity over time | seemed to show a concentration-dependent effect | did not |  |  | 
3 | COc1c(C)c(/C=C/C(=O)/C=C(O)/C=C/c2c(C)c(OC)c3ccccc3c2OC)c(OC)c2ccccc12 [RLS5, (1E,4Z,6E)-1,7-Bis(1,4-Dimethoxy-3-methylnaphthalen-2-yl)-5-Hydroxyhepta-1,4,6-trien-3-one] |  |  |  |  |  | slight concentration dependent effect | slight concentration dependent effect

— patent US12649709B2, “Naphthoquinone-based chalcone derivatives and uses thereof” (priority 2020, dated 2026)
